In article PMC6017322, “Triterpene Acids from Frankincense and Semi-Synthetic Derivatives That Inhibit 5-Lipoxygenase and Cathepsin G” (Molecules : A Journal of Synthetic Chemistry and Natural …, 2018):

Tests used:
[1] = target: T1, cathepsin G (Homo sapiens, UniProt P08311); test: Cathepsin G activity in a cell-free assay (Suc-AAPF-pNA substrate); format: biochemical; conditions: for remaining activity at 10 µM: residual activity at 10 µM, mean ± SEM, 3–4 experiments, read-out: Cat. G Activity [% Control]
T1 construct: purified cathepsin G (0.2 µg) from human neutrophils; purchased Calbiochem; host or cells: human neutrophils (natural source)
T1 sequence (P08311 21-244 limits assumed): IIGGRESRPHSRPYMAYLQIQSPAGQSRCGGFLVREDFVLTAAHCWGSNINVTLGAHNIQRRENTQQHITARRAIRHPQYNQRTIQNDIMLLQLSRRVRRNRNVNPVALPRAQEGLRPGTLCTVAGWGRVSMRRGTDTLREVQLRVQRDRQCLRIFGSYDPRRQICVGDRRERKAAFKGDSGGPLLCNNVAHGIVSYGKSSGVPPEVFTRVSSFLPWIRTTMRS
Method: Commercially available purified cathepsin G (0.2 µg) from human neutrophils (Calbiochem, La Jolla, CA, USA) was mixed with test compounds or DMSO (vehicle control) in 200 µL 0.1 M HEPES pH 7.4, 0.5 M NaCl, and 10% DMSO in a 96-well plate (Greiner Bio-One, Frickenhausen, Germany) and pre-incubated for 20 min at 25 °C. Then, N-Suc–Ala–Ala–Pro–Phe–pNA (Suc–AAPF–pNA) (1 mM) as substrate for cathespin G was added, and the absorbance was measured at 410 nm at 25 °C using a Victor^2 plate reader (PerkinElmer, Waltham, MA, USA).

[2] = target: T2, 5-LO (Homo sapiens, UniProt P09917); test: 5-LO activity in a cell-free assay (isolated human recombinant 5-LO, 20 µM arachidonic acid); format: biochemical; parameters: made in house; host or cells: Escherichia coli BL21 (pT3-5-LO plasmid); conditions: 20 µM arachidonic acid; for remaining activity at 10 µM: residual activity at 10 µM, isolated 5-LO, mean ± SEM, 3–4 experiments, read-out: 5-LO Activity [% Control] cell-free
T2 sequence (P09917 1-674): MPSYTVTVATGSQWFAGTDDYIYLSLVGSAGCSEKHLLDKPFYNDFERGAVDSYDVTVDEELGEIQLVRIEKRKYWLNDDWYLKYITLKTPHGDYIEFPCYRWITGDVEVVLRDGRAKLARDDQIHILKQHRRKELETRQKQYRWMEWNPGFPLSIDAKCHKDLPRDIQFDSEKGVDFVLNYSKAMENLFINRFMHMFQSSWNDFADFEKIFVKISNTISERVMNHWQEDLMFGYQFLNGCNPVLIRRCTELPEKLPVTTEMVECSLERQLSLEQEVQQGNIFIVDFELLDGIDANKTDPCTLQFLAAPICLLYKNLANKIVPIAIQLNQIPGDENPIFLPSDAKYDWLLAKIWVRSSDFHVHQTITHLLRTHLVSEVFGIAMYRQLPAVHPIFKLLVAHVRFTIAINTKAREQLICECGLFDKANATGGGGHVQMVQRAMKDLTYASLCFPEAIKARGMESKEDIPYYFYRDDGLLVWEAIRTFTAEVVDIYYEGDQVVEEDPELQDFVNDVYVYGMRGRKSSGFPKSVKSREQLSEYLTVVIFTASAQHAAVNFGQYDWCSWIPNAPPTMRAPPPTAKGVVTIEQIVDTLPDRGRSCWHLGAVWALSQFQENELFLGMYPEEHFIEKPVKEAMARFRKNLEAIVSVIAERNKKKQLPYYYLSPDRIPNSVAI
Method: Human recombinant 5-LO was expressed in Eschericha coli BL21 transformed with pT3-5-LO plasmid at 30 °C overnight, as described elsewhere. Cells were lysed in lysis buffer containing triethanolamine (50 mM, pH 8.0), EDTA (5 mM), phenylmethanesulfonyl fluoride (1 mM), soybean trypsin inhibitor (60 µg/mL), dithiothreitol (2 mM), and lysozyme (1 mg/mL), and homogenized by sonification (3 × 15 s). 5-LO was then purified from 40,000× g supernatant (20 min, 4 °C) using an ATP-agarose column (Sigma-Aldrich, Deisenhofen, Germany), diluted with PBS buffer containing 1 mM EDTA, and immediately used for 5-LO activity assays.
To determine 5-LO activity, aliquots of purified 5-LO (0.5 µg 5-LO in 1 mL PBS plus 1 mM EDTA) were pre-incubated with the test compounds or vehicle (0.1% dimethyl sulfoxide, DMSO) on ice for 15 min, pre-warmed for 30 s at 37 °C in a water bath, and then stimulated with 20 µM AA and CaCl2 2 mM for 10 min at 37 °C. The reaction was stopped with one volume of ice-cold methanol and 5-LO products (including all-trans-isomers of LTB4 and 5-hydroperoxyeicosatetraenoic acid (5-HpETE), as well as its corresponding alcohol 5-hydroxyeicosatetraenoic acid (5-HETE)) were analyzed by reversed phase (RP)-HPLC (Elite LaChrom, VWR, Radnor, PA, USA) as previously described. In brief, acidified PBS and 200 ng of internal PGB1 standard were added and solid phase extraction using C18 RP-columns (100 mg, UCT, Bristol, PA, USA) was performed. After elution with methanol, samples were analyzed by RP-HPLC using a C-18 Radial-PAK column (Waters, Eschborn, Germany).

[3] = target: T2, 5-LO; test: 5-LO product formation in intact human neutrophils stimulated with A23187 (cell-based); parameters: 5-LO product formation in intact human neutrophils; endogenous in cells; host or cells: freshly isolated human peripheral blood neutrophils; conditions: for IC50: human neutrophils stimulated with A23187; for remaining activity at 10 µM: residual activity at 10 µM, human neutrophils, A23187, mean ± SEM, 3–4 experiments, read-out: 5-LO Activity [% Control] cell-based
Method: Neutrophils were isolated from peripheral blood (University Hospital Tübingen, Germany), collected from fasted healthy adult donors that were informed about the aim of the study and gave written consent. Leukocyte concentrates were obtained by centrifugation (4000× g, 20 min, 20 °C) of heparinized blood preparation, and neutrophils were immediately isolated as described before. Briefly, leukocyte concentrates were subjected to dextran sedimentation and centrifuged on lymphocyte separation medium (LSM 1077, PAA, Coelbe, Germany). For isolation of pelleted neutrophils, remaining erythrocytes were removed by hypotonic lysis, washed twice with ice-cold phosphate-buffered saline (PBS) and finally resuspended in PBS buffer containing 0.1% glucose and CaCl2 (1 mM) (PGC buffer).
5-LO product formation in intact human neutrophils was performed using 5 × 10^6 freshly isolated cells that were resuspended in 1 mL PGC buffer. Cells were pre-incubated with the test compounds or vehicle (0.1% DMSO) at 37 °C for 15 min prior to stimulation with 2.5 µM Ca^2+-ionophore A23187 for 10 min (37 °C). 5-LO product formation was stopped by addition of one volume of ice-cold methanol, samples were subjected to solid phase extraction after addition of 200 ng PGB1 as internal standard, and 5-LO products (LTB4, its trans-isomers and 5-HETE) were analyzed by RP-HPLC as described above.

Work on `CC(C)=CCC[C@H](C(=O)O)[C@@H]1CC[C@]2(C)C3=CC[C@H]4C(C)(C)[C@H](O)CC[C@]4(C)[C@H]3CC[C@@]12C` [compound 13] yielded an inhibition at 10 µM ([1]; at 10 µM) of 27 to 44%, a remaining activity at 10 µM ([1]; cell-free) of 72.3 ± 3.6% and a remaining activity at 10 µM [2] of 89.6 ± 8.5%. It also gave an IC50 [3] of 2.9 µM and a remaining activity at 10 µM [3] of 8.2 ± 2.2%.

`C[C@H]1[C@H](C)CC[C@]2(C)CC[C@]3(C)C(=CC[C@@H]4[C@@]5(C)CC[C@@H](OC(=O)CCC(=O)O)[C@](C)(C(=O)O)[C@@H]5CC[C@]43C)[C@H]12` [compound 22, 3-O-Succinoyl-β-boswellic acid] showed a remaining activity at 10 µM ([1]; cell-free) of 59.4 ± 7.6%, a remaining activity at 10 µM [2] of 85.9 ± 11.1% and a remaining activity at 10 µM [3] of 60.3 ± 8%.

With `C[C@H]1[C@H](C)CC[C@]2(C)CC[C@]3(C)C(=CC(=O)[C@@H]4[C@@]5(C)CC[C@@H](O)[C@](C)(C(=O)O)[C@@H]5CC[C@]43C)[C@H]12` [compound 2, 11-keto-β-BA] the IC50 ([1]; cell-free, purified cathepsin G from human neutrophils, read-out: Cat. G IC50 (converted)) was 4.1 µM, the remaining activity at 10 µM ([1]; cell-free) was 29.4 ± 3.5% and the IC50 ([2]; isolated human 5-LO) was 4.6 µM. For the same compound, the remaining activity at 10 µM [2] was 31.1 ± 5%, the IC50 [3] was 3.5 µM and the remaining activity at 10 µM [3] was 25.7 ± 7.3%.
